{"source": "patent US20130267594A1", "about": "“PROLYL HYDROXYLASE INHIBITORS AS RADIATION MITIGATORS AND RADIATION PROTECTORS” (priority 2010, published 2013)", "key": {"MTA3 [1]": {"test_system": "MTA3", "assay_type": "cell-based"}, "Hif1α [2]": {"test_system": "Hif1α", "assay_type": "cell-based"}, "Hif1α [3]": {"test_system": "Hif1α", "assay_type": "cell-based, mouse"}, "CHD4 [4]": {"test_system": "CHD4", "assay_type": "cell-based"}, "MTA3 [5]": {"test_system": "MTA3", "assay_type": "cell-based", "remark": "listed apart in the source"}, "Suv39h1": {"test_system": "Suv39h1", "assay_type": "cell-based"}, "CHD4 [6]": {"test_system": "CHD4", "assay_type": "cell-based", "remark": "listed apart in the source"}}}
{"smiles": "[Cl-].[Cl-].[Co+2]", "note": "[CoCl2]", "values": [{"measurement": "MTA3 mRNA levels", "setting": "MTA3 [1]", "value": "increased"}, {"measurement": "Hif1α protein levels", "setting": "Hif1α [2]", "value": "increased"}, {"measurement": "accumulation of Hif1α", "setting": "Hif1α [2]", "value": "significant accumulation of Hif1α"}, {"measurement": "accumulation of Hif1α protein in combination with IR, versus agent alone", "setting": "Hif1α [2]", "value": "much larger accumulation of Hif1α protein"}, {"measurement": "ability to increase Hif1α levels in SuvDKO MEFs", "setting": "Hif1α [3]", "value": "not altered"}, {"measurement": "CHD4 mRNA levels", "setting": "CHD4 [4]", "value": "increased"}, {"measurement": "MTA3 protein levels", "setting": "MTA3 [5]", "value": "increased"}, {"measurement": "expression of the Suv39h1 methyltransferase", "setting": "Suv39h1", "value": "to a lesser extent, CoCl2, increased expression of the Suv39h1 methyltransferase"}, {"measurement": "CHD4 protein levels", "setting": "CHD4 [6]", "value": "increased"}]}
